Test results taken from patent US20250188110A1, “SPECIFIC SMALL MOLECULE INHIBITORS THAT BLOCK KMT9 METHYLTRANSFERASE ACTIVITY AND FUNCTION” (ALBERT-LUDWIGS-UNIVERSITÄT FREIBURG, priority 2021, published 2025).
pIC50, pKd: −log10 of the molar value. Like-named read-outs stand apart in the source and are kept apart here.

Key:
KMT9 [1] = biological target: T1, KMT9 (Homo sapiens, UniProt Q9Y5N5); experiment: Microscale thermophoresis (MST) KMT9 binding
T1 sequence (Q9Y5N5 1-214): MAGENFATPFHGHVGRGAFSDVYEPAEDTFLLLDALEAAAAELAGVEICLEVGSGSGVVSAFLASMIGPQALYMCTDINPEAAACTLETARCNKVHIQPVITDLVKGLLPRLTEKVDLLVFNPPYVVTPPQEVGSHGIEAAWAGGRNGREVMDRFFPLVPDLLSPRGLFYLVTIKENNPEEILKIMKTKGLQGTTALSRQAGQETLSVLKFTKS
T1 sequence (Q9UI30 1-120 isoform Q9UI30-2 partner): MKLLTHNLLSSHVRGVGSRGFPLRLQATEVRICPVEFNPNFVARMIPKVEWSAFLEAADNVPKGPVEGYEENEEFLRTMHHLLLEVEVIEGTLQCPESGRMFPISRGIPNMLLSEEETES
Summary of the method: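 Kd from microscale thermophoresis: compound series against 20 nM His-KMT9 labelled via RED-Tris-NTA, buffer 25 mM HEPES (pH 7.5)/100 mM NaCl/1 mM DTT/0.05% Tween, 40% MST power, 100% LED. Reported as classes: A ≤10 nM, B >10–100 nM, C >100–1000 nM, D >1000 nM.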

KMT9 [2] = biological target: T1, KMT9; experiment: KMT9 thermal shift assay (SyproOrange); assay type: binding
Summary of the method: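 ΔTm versus DMSO-only control is reported in bins (>20 K, 15–20 K, 10–15 K, ≤10 K), using Tm from Boltzmann sigmoidal fits of SyproOrange melt curves. KMT9 with compound in pH 8.5 BTP buffer containing MgCl2 and DTT was preincubated at 25° C, then ramped 1° C per 15 s up to 95° C.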

KMT9 [3] = biological target: T1, KMT9; experiment: KMT9 methyltransferase inhibition assay, MTaseGlo luminescence (from entry 155); assay type: biochemical; details: 100 nM KMT9, 5 μM ETF1, 1 μM SAM
Experimental: For the compounds from entry 155 on in Table 1, the following procedure was used to determine IC50 values: The assay was carried out in white, opaque 384-well OptiPlates (PerkinElmer). For IC50 determination, a 2.5x substrate mix (final assay concentrations: 5 μM ETF1, 1 μM SAM and 1x MTaseGlo Reagent), a 2.5x KMT9 solution (final assay concentration 100 nM) and a 5x inhibitor stock 1:1 dilution series (concentration according to the desired range; dilution series was prepared in assay buffer containing 10% DMSO to obtain a final DMSO concentration of 2% in the assay) were prepared. 2 μL of 5x inhibitor stock and 4 μL of 2.5x KMT9 were pipetted, the plate was spun down at 700 rpm for 1 min using a Hettich UNIVERSAL 320 centrifuge and incubated at room temperature (around 25° C.) for 15 min. The reaction was initiated by adding 4 μL of 2.5x substrate mix, the plate was spun down as described before and incubated at 30° C. for 2 h. Afterwards, 10 μL of 2× MTaseGlo Detection solution was added, the plate was centrifuged as described above and incubated for 60 min at room temperature. Luminescence was measured using a PerkinElmer EnVision 2102 Multilabel Reader. Calculation of inhibition and data fitting was carried out as for entries 1-154. described above.
For the results of the methyltransferase inhibition assay shown as “Inhibition” in Table 1, “I” represents an IC50 less than 0.1 μM, “II” represents an IC50 equal or higher than 0.1 μM and less than 1 μM, “III” represents an IC50 equal or higher than 1 µM and less than 10 µM and “IV” represents an IC50 equal or higher than 10 µM

KMT9 [4] = biological target: T1, KMT9; experiment: KMT9 methyltransferase inhibition assay, 3H-SAM scintillation (entries 1-154); assay type: biochemical; details: entries 1-154: 3H-SAM assay, 25 nM KMT9, 5 μM ETF1
Summary of the method: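 Tritium transfer from SAM (0.3 μM 3H-SAM, 0.7 μM unlabelled, final) to 5 μM ETF1 fragment by 25 nM KMT9 was measured after 2 h at 30° C, pH 8.5. Precipitated peptide was collected on filters and scintillation counted; IC50 came from a four-parameter fit of inhibition normalised to controls.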

[5] = His-tag labelled KMT9 20 nM, read-out: MST (Kd)
[6] = 500 µM compound, 2 μM KMT9, read-out: Thermal shift (ΔTm)
[7] = MTaseGlo procedure (entries from 155), read-out: Inhibition (IC50)
[8] = His-tag labelled KMT9 20 nM, Kd class, read-out: MST
[9] = ΔTm class, 500 uM compound, 2 μM KMT9, read-out: Thermal shift
[10] = IC50 class, MTaseGlo procedure (entries from 155 on), read-out: Inhibition
[11] = microscale thermophoresis, His-tag labelled KMT9 (20 nM), read-out: MST
[12] = ΔTm, 500 µM compound, 2 μM KMT9, 5X SO, read-out: Thermal shift

pKd (KMT9 [1]; [11]) | ΔTm at 500 µM (KMT9 [2]; [12]) | pIC50 (KMT9 [4]) | Compound | other results
 |  |  | CNc1nc(Cl)nc2c1ccn2[C@@H]1C[C@H](c2ccccc2)[C@@H](O)[C@H]1O [Compound 596, (1R,2S,3R,5R)-3-(2-Chloro-4-(methylamino)-7H-pyrrolo[2,3-d]pyrimidin-7-yl)-5-phenylcyclopentane-1,2-diol] | pKd (KMT9 [1]; [5]): 6.00 to 7.00; ΔTm at 500 µM (KMT9 [2]; [6]): ≤ 10 °C; pIC50 (KMT9 [3]; [7]): 5.00 to 6.00
 |  |  | Nc1ncnc2c1ccn2[C@@H]1C[C@H](c2cccc(-c3cnsc3)c2)[C@@H](O)[C@H]1O [Compound 650, (1R,2S,3R,5R)-3-(4-amino-7H-pyrrolo[2,3-d]pyrimidin-7-yl)-5-(3-(isothiazol-4-yl)phenyl)cyclopentane-1,2-diol] | pKd (KMT9 [1]; [8]): 6.00 to 7.00; ΔTm at 500 µM (KMT9 [2]; [9]): ≤ 10 °C; pIC50 (KMT9 [3]; [10]): < 5.00
 |  |  | C=CCN1CCC([C@H]2C[C@@H](n3cc(-c4nc(Cc5ccccc5)cs4)c4c(N)nc(Cl)nc43)[C@H](O)[C@@H]2O)CC1 [Compound 509, (1R,2S,3R,5R)-3-[4-amino-5-(4-benzyl-1,3-thiazol-2-yl)-2-chloropyrrolo[2,3-d]pyrimidin-7-yl]-5-[1-(prop-2-en-1-yl)piperidin-4-yl]cyclopentane-1,2-diol] | pKd (KMT9 [1]; [5]): ≥ 8.00; ΔTm at 500 µM (KMT9 [2]; [6]): 15 to 20 °C; pIC50 (KMT9 [3]; [7]): 5.00 to 6.00
 |  |  | Nc1ccc([C@H]2C[C@@H](n3ccc4c(N)ncnc43)[C@H](O)[C@@H]2O)cc1 [Compound 409, (1r,2s,3r,5r)-3-(4-amino-7H-pyrrolo[2,3-d]pyrimidin-7-yl)-5-(4-aminophenyl) cyclopentane-1,2-diol] | pKd (KMT9 [1]; [8]): < 6.00; ΔTm at 500 µM (KMT9 [2]; [9]): ≤ 10 °C; pIC50 (KMT9 [3]; [10]): < 5.00
< 6.00 | ≤ 10 °C |  | Nc1ncnc2c1ccn2[C@@H]1C[C@H](c2cccs2)[C@@H](O)[C@H]1O [Compound 390, (1R,2S,3R,5S)-3-(4-amino-7H-pyrrolo[2,3-a]pyrimidin-7-yl)-5-(thiophen-2-yl) cyclopentane-1,2-diol] | pIC50 (KMT9 [3]; from entry 155: MTaseGlo assay, read-out: Inhibition): < 5.00
 |  |  | Nc1ncnc2c1c(Br)cn2[C@@H]1C[C@H](c2ccccc2)[C@@H](O)[C@H]1O [Compound 386, (1R,2S,3R,5R)-3-(4-amino-5-bromo-7H-pyrrolo[2,3-a]pyrimidin-7-yl)-5-phenylcyclopentane-1,2-diol] | pKd (KMT9 [1]; [8]): < 6.00; ΔTm at 500 µM (KMT9 [2]; [9]): ≤ 10 °C; pIC50 (KMT9 [3]; [10]): < 5.00
 |  |  | O[C@@H]1[C@H](O)[C@@H](C2CCCN(CC3CC3)C2)C[C@H]1n1cc(-c2nc(Cc3ccccc3)cs2)c2cnc(Cl)nc21 (stereo partly drawn) [Compound 516, (1R,2S,3R,5R)-3-(5-(4-benzylthiazol-2-yl)-2-chloro-7H-pyrrolo[2,3-d]pyrimidin-7-yl)-5-(1-(cyclopropylmethyl)piperidin-3-yl)cyclopentane-1,2-diol] | pKd (KMT9 [1]; [8]): 6.00 to 7.00; pIC50 (KMT9 [3]; [10]): 5.00 to 6.00
7.00 to 8.00 | 15 to 20 °C | 5.00 to 6.00 | C=Cc1cn([C@@H]2C[C@H](CN3CC(CNCCc4ccc(F)cc4)C3)[C@@H](O)[C@H]2O)c2ncnc(N)c12 [485 (359), (1R,2S,3R,5R)-3-(4-Amino-5-vinyl-7H-pyrrolo[2,3-d]pyrimidin-7-yl)-5-((3-(((4-fluorophenethyl)amino)methyl)azetidin-1-yl)methyl) cyclopentane-1,2-diol] | 
< 6.00 | ≤ 10 °C | < 5.00 | CNCCC(=O)N(C)C[C@H]1C[C@@H](n2ccc3c(NC)ncnc32)[C@H](O)[C@@H]1O [417 (288), N-(((1R,2R,3S,4R)-2,3-dihydroxy-4-(4-(methylamino)-7H-pyrrolo[2,3-d]pyrimidin-7-yl)cyclopentyl)methyl)-N-methyl-3-(methylamino)propanamide] | 
≥ 8.00 | 15 to 20 °C | > 7.00 | CS(=O)(=O)n1ccc(-c2cn([C@@H]3C[C@H](CNCCCNCCc4ccccc4)[C@@H](O)[C@H]3O)c3ncnc(N)c23)n1 [Compound 600, (1R,2S,3R,5R)-3-(4-Amino-5-(1-(methylsulfonyl)-1H-pyrazol-3-yl)-7H-pyrrolo[2,3-d]pyrimidin-7-yl)-5-(((3-(phenethylamino)propyl)amino)methyl)cyclopentane-1,2-diol] | 
6.00 to 7.00 | 10 to 15 °C | 5.00 to 6.00 | CCC(C)c1cn([C@@H]2C[C@H](CNCCCNCCc3ccccc3)[C@@H](O)[C@H]2O)c2ncnc(N)c12 (stereo partly drawn) [469 (343), (1R,2S,3R,5R)-3-(4-Amino-5-(sec-butyl)-7H-pyrrolo[2,3-d]pyrimidin-7-yl)-5-(((3-(phenethylamino)propyl)amino)methyl) cyclopentane-1,2-diol] | 
< 6.00 | ≤ 10 °C | < 5.00 | CNc1ncnc2c1ccn2[C@@H]1C[C@H](CNCCCNCc2ccc(OCc3ccccc3)cc2)[C@@H](O)[C@H]1O [328 (232), (1S,2R,3R,5R)-3-(((3-((4-(benzyloxy)benzyl)amino)propyl)amino)methyl)-5-(4-(methylamino)-7H-pyrrolo[2,3-d]pyrimidin-7-yl) cyclopentane-1,2-diol] | 
7.00 to 8.00 | 15 to 20 °C | 6.00 to 7.00 | Nc1ncnc2c1c(C1CC1)cn2[C@@H]1C[C@H](CNCCCNCCc2cccc(Oc3ccccc3)c2)[C@@H](O)[C@H]1O [460 (333), (1R,2S,3R,5R)-3-(4-Amino-5-cyclopropyl-7H-pyrrolo[2,3-d]pyrimidin-7-yl)-5-(((3-((3-phenoxyphenethyl)amino)propyl)amino)methyl) cyclopentane-1,2-diol] | 
6.00 to 7.00 | 10 to 15 °C | 5.00 to 6.00 | CNc1ncnc2c1ccn2[C@@H]1C[C@H](CN(CCCNCCc2cccc(Oc3ccccc3)c2)C(C)C)[C@@H](O)[C@H]1O [362 (266), (1S,2R,3R,5R)-3-((isopropyl(3-((3-phenoxyphenethyl)amino)propyl)amino)methyl)-5-(4-(methylamino)-7H-pyrrolo[2,3-d]pyrimidin-7-yl) cyclopentane-1,2-diol] | 
< 6.00 | ≤ 10 °C | < 5.00 | CNc1ncnc2c1ccn2[C@@H]1C[C@H](COCC(=O)NCCc2ccccc2)[C@@H](O)[C@H]1O [689 (298), 2-(((1R,2R,3S,4R)-2,3-Dihydroxy-4-(4-(methylamino)-7H-pyrrolo[2,3-d]pyrimidin-7-yl)cyclopentyl)methoxy)-N-phenethylacetamide] | 
6.00 to 7.00 | 10 to 15 °C | 6.00 to 7.00 | Nc1ncnc2c1c(-c1ccncc1)cn2[C@@H]1C[C@H](CNCCCNCCc2ccccc2)[C@@H](O)[C@H]1O [470 (344), (1R,2S,3R,5R)-3-(4-Amino-5-(pyridin-4-yl)-7H-pyrrolo[2,3-d]pyrimidin-7-yl)-5-(((3-(phenethylamino)propyl)amino)methyl) cyclopentane-1,2-diol] | 
< 6.00 | ≤ 10 °C | < 5.00 | CCC(=O)NCCCNC[C@H]1O[C@@H](n2cnc3c(N)ncnc32)[C@H](O)[C@@H]1O [313 (212), N-(3-((((2R,3S,4R,5R)-5-(6-amino-9//-purin-9-yl)-3,4-dihydroxytetrahydrofuran-2-yl)methyl)amino)propyl)propionamide] | 
